How the values were obtained:
[1] = tested on: Enterobacter aerogenes CECT 689; conditions: Gram − Bacteria; cited from earlier work
[2] = tested on: Klebsiella pneumoniae var pneumoniae CECT 178; conditions: Gram − Bacteria; cited from earlier work
[3] = tested on: Clostridium perfringens ATCC 77454; conditions: Gram + Bacteria; cited from earlier work
[4] = tested on: endospores from Geobacillus stearothermophilus ATCC 12980; assay: Sporicidal activity, quantitative suspension test EN 13704:2002 (Example 3); format: cell-based; conditions: 40° C.; for calculated reduction (R) R=N×0.1/Na: 60 minutes; for Test of LAE sporicidal activity (Na), surviving spores count: water as interfering substance, N 1.3 × 10^6 cfu/mL
Method: (§1) The determination of the sporicidal activity of LAE has been carried out according to the European standard EN 13704:2002: “Chemical disinfectant—Quantitative suspension test for the evaluation of sporicidal activity of chemical disinfectants used in food, industrial, domestic and institutional areas—Test method and requirements”.
(§2) A test suspension containing endospores from Geobacillus stearothermophilus ATCC 12980 was prepared from a culture grown on a nutrient agar, to which additional sporulation enhancement ingredients were added. Plates were harvested with sterile water and endospores were purified by repeated centrifugations and resuspensions in water.
(§3) Neutralizer. The neutralizer mixture consisted of 30 g/L polysorbate 80 in water. The solution was intended to neutralize any chemicals so that these would not affect subsequent growth of the bacteria.
The sporicidal activity of a given product is defined by its capacity to reduce at least by 10^3 the amount of Geobacillus stearothermophilus bacterial spores in suspension, in the conditions established in the method.
(§4) The product was in contact with a suspension of bacterial spores during an established period of time of 60 minutes. An interfering substance can be added to the suspension, in this case water. Next, the effect of the product is neutralized by adding a neutralizer previously chosen, preceding to the surviving spores count.
(§5) • 1. Spore suspension obtained from a spored-form culture of Geobacillus stearothermophilus • 2. Count of the spore suspension of Geobacillus stearothermophilus. • 3. The possible toxic effect of the neutralizer on the spores in the absence of the product is valued. • 4. Validation of the dilution-neutralisation method. • 5. Evaluation of the inhibitory sporicide effect of the product. • 6. Result calculation. Results: Results are expressed as the reduction of viability of the spore suspension in regards to:
Tabulation of the Method and Test Validation Results (at 40° C.): […]

[5] = tested on: Bordetella bronchiseptica ATCC 4617; conditions: Gram − Bacteria; cited from earlier work
[6] = tested on: Proteus mirabilis CECT 170; conditions: Gram − Bacteria; cited from earlier work
[7] = tested on: Staphylococcus aureus ATCC 6538; conditions: Gram + Bacteria; cited from earlier work
[8] = tested on: Bacillus cereus var mycoide ATCC 11778; conditions: Gram + Bacteria; cited from earlier work
[9] = tested on: Chaetonium globosum ATCC 6205; conditions: Fungi; cited from earlier work
[10] = tested on: Gliocadium virens ATCC 4645; conditions: Fungi; cited from earlier work
[11] = tested on: Mycobacterium phlei ATCC 41423; conditions: listed under Gram − Bacteria; cited from earlier work
[12] = tested on: endospores from Thermoanaerobacterium thermosaccharolyticum ATCC 7956; assay: Sporicidal activity, quantitative suspension test EN 13704:2002 (Example 4); format: cell-based; conditions: 20° C.; for calculated reduction R=N×0.1/Na: 60 minutes; for Test of LAE sporicidal activity (Na), surviving spores count: water as interfering substance, N 0.65 × 10^6 cfu/mL
Method: as §1
as §2, with “Thermoanaerobacterium thermosaccharolyticum” for “Geobacillus stearothermophilus”, “7956” for “12980”
as §3
The sporicidal activity of a given product is defined by its capacity to reduce at least by 10^3 the amount of Thermoanaerobacterium thermosaccharolyticum bacterial spores in suspension, in the conditions established in the method.
as §4
as §5, with “Thermoanaerobacterium thermosaccharolyticum.” for “Geobacillus stearothermophilus”, “Thermoanaerobacterium thermosaccharolyticum.” for “Geobacillus stearothermophilus.”
Tabulation of the Method and Test Validation Results (at 20° C.):
A product is considered sporicidal if its use results in a reduction (R) in the number of Thermoanaerobacterium thermosaccharolyticum bacterial spores equal to or above 10^3 after being in contact for 60 minutes in the conditions set in EN 13704:2002.

[13] = tested on: Penicillium funiculosum CECT 2914; conditions: Fungi; cited from earlier work
[14] = tested on: Candida albicans ATCC 10231; conditions: Yeast; cited from earlier work
[15] = 60 minutes contact, EN 13704:2002

CCCCCCCCCCCC(=O)N[C@@H](CCCN=C(N)N)C(=O)OCC.Cl [LAE, ethyl ester of the lauramide of the arginine monohydrochloride]
M.I.C. [1]: 32 ppm
M.I.C. [2]: 32 ppm
M.I.C. [3]: 16 ppm
calculated reduction (R) R=N×0.1/Na ([4]; 58 μg/ml of LAE): < 10^3 cfu/mL
calculated reduction (R) R=N×0.1/Na ([4]; 115 μg/ml of LAE): < 10^3 cfu/mL
calculated reduction (R) R=N×0.1/Na ([4]; 173 μg/ml of LAE): > 10^3 cfu/mL
calculated reduction (R) R=N×0.1/Na ([4]; 230 μg/ml of LAE): > 10^3 cfu/mL
calculated reduction (R) R=N×0.1/Na ([4]; 460 μg/ml of LAE): > 10^3 cfu/mL
concentration displaying sporicidal activity (reduction equal to or above 10^3) [4, 15]: ≥ 173 μg/ml
Test of LAE sporicidal activity (Na), surviving spores count ([4]; LAE 58 μg/mL, 60 minutes contact): 1.0 × 10^5 cfu/mL
Test of LAE sporicidal activity (Na), surviving spores count ([4]; LAE 115 μg/mL, 60 minutes contact): 5.2 × 10^4 cfu/mL
Test of LAE sporicidal activity (Na), surviving spores count ([4]; LAE 173 μg/mL, 60 minutes contact): <10^2 cfu/mL
Test of LAE sporicidal activity (Na), surviving spores count ([4]; LAE 230 μg/mL, 60 minutes contact): <10^2 cfu/mL
Test of LAE sporicidal activity (Na), surviving spores count ([4]; LAE 460 μg/mL, 60 minutes contact): <10^2 cfu/mL
M.I.C. [5]: 128 ppm
M.I.C. [6]: 32 ppm
M.I.C. [7]: 32 ppm
M.I.C. [8]: 32 ppm
M.I.C. [9]: 16 ppm
M.I.C. [10]: 32 ppm
M.I.C. [11]: 2 ppm
calculated reduction R=N×0.1/Na ([12]; 32 μg/mL of LAE): < 10^3 cfu/mL
calculated reduction R=N×0.1/Na ([12]; 51 μg/mL of LAE): < 10^3 cfu/mL
calculated reduction R=N×0.1/Na ([12]; 102 μg/mL of LAE): > 10^3 cfu/mL
calculated reduction R=N×0.1/Na ([12]; 205 μg/mL of LAE): > 10^3 cfu/mL
concentration displaying sporicidal activity (reduction equal to or above 10^3) [12, 15]: ≥ 102 μg/mL
Test of LAE sporicidal activity (Na), surviving spores count ([12]; LAE 32 μg/mL, 60 minutes contact): 2.7 × 10^3 cfu/mL
Test of LAE sporicidal activity (Na), surviving spores count ([12]; LAE 51 μg/mL, 60 minutes contact): 1.6 × 10^3 cfu/mL
Test of LAE sporicidal activity (Na), surviving spores count ([12]; LAE 102 μg/mL, 60 minutes contact): <10^2 cfu/mL
Test of LAE sporicidal activity (Na), surviving spores count ([12]; LAE 205 μg/mL, 60 minutes contact): <10^2 cfu/mL
M.I.C. [13]: 16 ppm
M.I.C. [14]: 16 ppm
